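Step 1: Grow cells in 96-well plates. Step 2: Expose to compound for 48 hours at 5 concentrations. Step 3: Interpolate endpoints linearly; if unreached, use highest concentration. GI50 = concentration required for 50% inhibition of growth.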 Active and inactive are the calls of the source. Rule as the data show it: active = GI50 up to about 1.1 µM and inactive = higher.
Columns and labels:
Test in all cases: inhibition of tumour cell growth, NCI panel, 48 h
[1] = test system: MDA-MB-435
[2] = test system: HL-60
[3] = test system: NCI/ADR-RES
[4] = test system: Malme-3M
[5] = test system: HCT-15
[6] = test system: HCT-116
[7] = test system: OVCAR-8
[8] = test system: HOP-92
[9] = test system: SF-539
[10] = test system: CAKI-1
[11] = test system: SN12C
[12] = test system: SF-295
[13] = test system: UO-31
[14] = test system: K562
[15] = test system: NCI-H460
[16] = test system: U-251
[17] = test system: NCI-H522
[18] = test system: HOP-62
[19] = test system: NCI-H23
[20] = test system: NCI-H226

Row | SMILES | GI50 [1] | GI50 [2] | GI50 [3] | GI50 [4] | GI50 [5] | GI50 [6] | GI50 [7] | GI50 [8] | GI50 [9] | GI50 [10] | GI50 [11] | GI50 [12] | GI50 [13] | GI50 [14] | GI50 [15] | GI50 [16] | GI50 [17] | GI50 [18] | GI50 [19] | GI50 [20]
1 | CN(C)c1ncnc2c1ncn2C1C=CC(COS(N)(=O)=O)C1 (centres undefined) | > 100 µM (inactive) | > 100 µM (inactive) | > 100 µM (inactive) | > 100 µM (inactive) | > 100 µM | > 100 µM (inactive) | 83.6 µM (inactive) | > 100 µM (inactive) | > 100 µM (inactive) | > 100 µM (inactive) | > 100 µM (inactive) | > 100 µM (inactive) | > 100 µM (inactive) | 82.4 µM (inactive) | > 100 µM (inactive) | > 100 µM (inactive) | 47.2 µM (inactive) | > 100 µM (inactive) | 80.9 µM (inactive) | –
2 | CC(CO)C1C[C@H](O)[C@@]2(C)CC(=O)C=C(CO)[C@@H]2C1 (some centres undefined) | > 100 µM (inactive) | 92 µM (inactive) | > 100 µM (inactive) | – | > 100 µM | > 100 µM (inactive) | > 100 µM (inactive) | > 100 µM (inactive) | > 100 µM (inactive) | > 100 µM (inactive) | > 100 µM (inactive) | > 100 µM (inactive) | > 100 µM (inactive) | – | > 100 µM (inactive) | > 100 µM (inactive) | – | > 100 µM (inactive) | > 100 µM (inactive) | > 100 µM (inactive)
3 | Cc1cc2c(cc1C(=O)c1ccc(N)cc1)OCO2 | 7.82 µM (inactive) | 49.9 µM (inactive) | 25.1 µM (inactive) | 33.8 µM (inactive) | 30.4 µM | 52 µM (inactive) | > 100 µM (inactive) | 33.2 µM (inactive) | 27.2 µM (inactive) | 24.5 µM (inactive) | 49.5 µM (inactive) | 21.9 µM (inactive) | 77.8 µM (inactive) | 24.9 µM (inactive) | 33.7 µM (inactive) | 24.9 µM (inactive) | 19.1 µM (inactive) | 58.7 µM (inactive) | > 100 µM (inactive) | –
4 | CCC1c2[nH]c3ccccc3c2C[C@H]2C(=O)NC(Cc3c[nH]c4ccccc34)C(=O)N12 (some centres undefined) | 19.7 µM (inactive) | 19.2 µM (inactive) | 27.9 µM (inactive) | 18.4 µM (inactive) | 28.5 µM | 18 µM (inactive) | 32.7 µM (inactive) | 26.5 µM (inactive) | – | 28.8 µM (inactive) | 22.5 µM (inactive) | 17.3 µM (inactive) | 27.7 µM (inactive) | 27.6 µM (inactive) | – | 17.5 µM (inactive) | 22.6 µM (inactive) | 24 µM (inactive) | 25.5 µM (inactive) | 32.7 µM (inactive)
5 | CN(C)CCCOCCn1c2c(c3ccccc31)CCCC2 | 17.7 µM (inactive) | 5.19 µM (inactive) | 16.3 µM (inactive) | 18 µM (inactive) | 15 µM | 15.3 µM (inactive) | 17.5 µM (inactive) | 13.2 µM (inactive) | 18.7 µM (inactive) | 15.2 µM (inactive) | 16.9 µM (inactive) | 20 µM (inactive) | 17.1 µM (inactive) | 12.9 µM (inactive) | 15 µM (inactive) | 17.9 µM (inactive) | – | 14.7 µM (inactive) | 15.1 µM (inactive) | 29.6 µM (inactive)
6 | O=C(NN=C1NCCN1)c1ccco1 | > 100 µM (inactive) | > 100 µM (inactive) | > 100 µM (inactive) | > 100 µM (inactive) | > 100 µM | > 100 µM (inactive) | > 100 µM (inactive) | > 100 µM (inactive) | > 100 µM (inactive) | – | > 100 µM (inactive) | > 100 µM (inactive) | > 100 µM (inactive) | > 100 µM (inactive) | > 100 µM (inactive) | > 100 µM (inactive) | > 100 µM (inactive) | > 100 µM (inactive) | > 100 µM (inactive) | 62.4 µM (inactive)
7 | N#CC(C#N)=C1CCCS(=O)(=O)c2ccccc21 | > 100 µM (inactive) | > 100 µM (inactive) | > 100 µM (inactive) | – | > 100 µM | > 100 µM (inactive) | > 100 µM (inactive) | > 100 µM (inactive) | > 100 µM (inactive) | > 100 µM (inactive) | > 100 µM (inactive) | > 100 µM (inactive) | > 100 µM (inactive) | > 100 µM (inactive) | > 100 µM (inactive) | > 100 µM (inactive) | – | > 100 µM (inactive) | > 100 µM (inactive) | > 100 µM (inactive)

From ChEMBL document CHEMBL1201862, “PubChem BioAssay data set” (2004)
